Patent publication US4442044A, “Process for preparing monoesters and diesters of N-alkyl substituted amino methyl phosphonic acid” (priority 1983, dated 1984)

Tests used:
Experiment in all cases: post-emergent herbicidal activity, greenhouse
Type in all cases: in vivo
Details in all cases: Table I
Morningglory = test system: Morningglory
Excerpt: (§1) A good grade of top soil is placed in aluminum pans having holes in the bottom and compacted to a depth of 0.95 to 1.27 cm. from the top of the pan. A predetermined number of seeds of each of several dicotyledonous and monocotyledonous annual plant species and/or vegetative propagules for the perennial plant species were placed on the soil and pressed into the soil surface. The seeds and/or vegetative propagules are covered with soil and leveled. The pans are then placed on a sand bench in the greenhouse and watered from below as needed. After the plants reach the desired age (two to three weeks), each pan except for the control pans is removed individually to a spraying chamber and sprayed by means of an atomizer operating at a positive air pressure of approximately 1.46 kg/cm^2 absolute. The atomizer contains 6 ml. of a solution or suspension of the chemical. In that 6 ml., is an amount of a cyclohexanone emulsifying agent mixture to give a spray solution or suspension which contains about 0.4% by weight of the emulsifier. The spray solution or suspension contains a sufficient amount of the candidate chemical in order to give application rates corresponding to those set forth in the tables. The spray solution is prepared by taking an aliquot of a 1.0% by weight stock solution or suspension of the candidate chemical in an organic solvent such as acetone or tetrahydrofuran or in water. The emulsifying agent employed is a mixture comprising 35 weight percent butylamine dodecylbenzene sulfonate and 65 weight percent of a tall oil ethylene oxide condensate having about 11 moles of ethylene oxide per mole of tall oil. The pans are returned to the greenhouse and watered as before and the injury to the plants as compared to the control is observed at approximately two and four weeks as indicated in the tables under WAT and the results recorded. In some instances, the two-week observations are omitted.
(§2) The post-emergent herbicidal activity index used in Tables I and II is as follows: […]

Cocklebur = test system: Cocklebur
Excerpt: as §1, §2

Quackgrass = test system: Quackgrass
Excerpt: as §1, §2

Yellow Nutsedge = test system: Yellow Nutsedge
Excerpt: as §1, §2

Downy Brome = test system: Downy Brome
Excerpt: as §1, §2

Velvetleaf = test system: Velvetleaf
Excerpt: as §1, §2

Johnsongrass = test system: Johnsongrass
Excerpt: as §1, §2

Smartweed = test system: Smartweed
Excerpt: as §1, §2

Lambsquarters = test system: Lambsquarters
Excerpt: as §1, §2

Barnyardgrass = test system: Barnyardgrass
Excerpt: as §1, §2

Canada Thistle = test system: Canada Thistle
Excerpt: as §1, §2

`CCOC(=O)CNCP(=O)(OC(C)(C)C#N)OC(C)(C)C#N` [Example 2, glycine, N-[bis(1-cyano-1-methyl-ethoxy)phosphinylmethyl], ethyl ester] was tested, and the “post-emergent herbicidal activity index” value (Morningglory; 2 WAT, 5.6 kg/h) was 0 (0-24% control), the “post-emergent herbicidal activity index” value (Morningglory; 4 WAT, 11.2 kg/h) was 0 (0-24% control) and the “post-emergent herbicidal activity index” value (Morningglory; 4 WAT, 56.0 kg/h) was 1 (25-49% control). For the same compound, the “post-emergent herbicidal activity index” value (Cocklebur; 2 WAT, 5.6 kg/h) was 0 (0-24% control), the “post-emergent herbicidal activity index” value (Cocklebur; 4 WAT, 11.2 kg/h) was 0 (0-24% control) and the “post-emergent herbicidal activity index” value (Cocklebur; 4 WAT, 56.0 kg/h) was 1 (25-49% control). The “post-emergent herbicidal activity index” value (Quackgrass; 2 WAT, 5.6 kg/h) was 0 (0-24% control), the “post-emergent herbicidal activity index” value (Quackgrass; 4 WAT, 11.2 kg/h) was 0 (0-24% control) and the “post-emergent herbicidal activity index” value (Quackgrass; 4 WAT, 56.0 kg/h) was 0 (0-24% control). The “post-emergent herbicidal activity index” value (Yellow Nutsedge; 2 WAT, 5.6 kg/h) was 0 (0-24% control), the “post-emergent herbicidal activity index” value (Yellow Nutsedge; 4 WAT, 11.2 kg/h) was 0 (0-24% control) and the “post-emergent herbicidal activity index” value (Yellow Nutsedge; 4 WAT, 56.0 kg/h) was 0 (0-24% control). The “post-emergent herbicidal activity index” value (Downy Brome; 2 WAT, 5.6 kg/h) was 0 (0-24% control), the “post-emergent herbicidal activity index” value (Downy Brome; 4 WAT, 11.2 kg/h) was 0 (0-24% control) and the “post-emergent herbicidal activity index” value (Downy Brome; 4 WAT, 56.0 kg/h) was 0 (0-24% control). The “post-emergent herbicidal activity index” value (Velvetleaf; 2 WAT, 5.6 kg/h) was 0 (0-24% control), the “post-emergent herbicidal activity index” value (Velvetleaf; 4 WAT, 11.2 kg/h) was 0 (0-24% control) and the “post-emergent herbicidal activity index” value (Velvetleaf; 4 WAT, 56.0 kg/h) was 0 (0-24% control). The “post-emergent herbicidal activity index” value (Johnsongrass; 2 WAT, 5.6 kg/h) was 0 (0-24% control), the “post-emergent herbicidal activity index” value (Johnsongrass; 4 WAT, 11.2 kg/h) was 0 (0-24% control) and the “post-emergent herbicidal activity index” value (Johnsongrass; 4 WAT, 56.0 kg/h) was 0 (0-24% control). For the same compound, the “post-emergent herbicidal activity index” value (Smartweed; 2 WAT, 5.6 kg/h) was 0 (0-24% control), the “post-emergent herbicidal activity index” value (Smartweed; 4 WAT, 11.2 kg/h) was 0 (0-24% control) and the “post-emergent herbicidal activity index” value (Smartweed; 4 WAT, 56.0 kg/h) was 1 (25-49% control). For the same compound, the “post-emergent herbicidal activity index” value (Lambsquarters; 2 WAT, 5.6 kg/h) was 0 (0-24% control), the “post-emergent herbicidal activity index” value (Lambsquarters; 4 WAT, 11.2 kg/h) was 0 (0-24% control) and the “post-emergent herbicidal activity index” value (Lambsquarters; 4 WAT, 56.0 kg/h) was 1 (25-49% control). For the same compound, the “post-emergent herbicidal activity index” value (Barnyardgrass; 2 WAT, 5.6 kg/h) was 0 (0-24% control), the “post-emergent herbicidal activity index” value (Barnyardgrass; 4 WAT, 11.2 kg/h) was 1 (25-49% control) and the “post-emergent herbicidal activity index” value (Barnyardgrass; 4 WAT, 56.0 kg/h) was 0 (0-24% control). The “post-emergent herbicidal activity index” value (Canada Thistle; 4 WAT, 56.0 kg/h) was 4 (100% control).

`C#CCNCP(=O)(OC(C)C#N)OC(C)C#N` (stereo not drawn) [Example 3, phosphonic acid, [(2-propnylamino)methyl]-,bis(1-cyanoethyl)ester] was tested, and the “post-emergent herbicidal activity index” value (Morningglory; 2 WAT, 11.2 kg/h) was 0 (0-24% control), the “post-emergent herbicidal activity index” value (Cocklebur; 2 WAT, 11.2 kg/h) was 0 (0-24% control) and the “post-emergent herbicidal activity index” value (Quackgrass; 2 WAT, 11.2 kg/h) was 0 (0-24% control). The “post-emergent herbicidal activity index” value (Yellow Nutsedge; 2 WAT, 11.2 kg/h) was 0 (0-24% control), the “post-emergent herbicidal activity index” value (Downy Brome; 2 WAT, 11.2 kg/h) was 0 (0-24% control) and the “post-emergent herbicidal activity index” value (Velvetleaf; 2 WAT, 11.2 kg/h) was 0 (0-24% control). For the same compound, the “post-emergent herbicidal activity index” value (Johnsongrass; 2 WAT, 11.2 kg/h) was 0 (0-24% control), the “post-emergent herbicidal activity index” value (Smartweed; 2 WAT, 11.2 kg/h) was 1 (25-49% control) and the “post-emergent herbicidal activity index” value (Lambsquarters; 2 WAT, 11.2 kg/h) was 0 (0-24% control). For the same compound, the “post-emergent herbicidal activity index” value (Barnyardgrass; 2 WAT, 11.2 kg/h) was 2 (50-74% control) and the “post-emergent herbicidal activity index” value (Canada Thistle; 2 WAT, 11.2 kg/h) was 0 (0-24% control).
